According to ChEMBL document CHEMBL1201862, “PubChem BioAssay data set” (2004):
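The compound was tested at five concentrations on cells cultured in 96-well plates, with a 48-hour exposure period. Abbreviation: GI50, concentration required for 50% inhibition of growth.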 Activity calls are given as the source filed them. No stated cut-off is given here; in the data, active = GI50 up to about 1.1 µM and inactive = higher.

Key:
Assay in all cases: inhibition of tumour cell growth, NCI panel, 48 h
MOLT-4 = test system: MOLT-4
CAKI-1 = test system: CAKI-1
LOX IMVI = test system: LOX IMVI
SK-MEL-2 = test system: SK-MEL-2
T47D = test system: T47D
DU-145 = test system: DU-145
NCI-H226 = test system: NCI-H226
UACC-62 = test system: UACC-62
HT-29 = test system: HT-29
U-251 = test system: U-251
HCC 2998 = test system: HCC 2998
OVCAR-8 = test system: OVCAR-8
HCT-15 = test system: HCT-15
MDA-MB-435 = test system: MDA-MB-435
SF-268 = test system: SF-268
OVCAR-3 = test system: OVCAR-3
786-0 = test system: 786-0
OVCAR-4 = test system: OVCAR-4
NCI-H23 = test system: NCI-H23
EKVX = test system: EKVX
BT-549 = test system: BT-549
HCT-116 = test system: HCT-116
SW-620 = test system: SW-620
SNB-19 = test system: SNB-19
KM12 = test system: KM12
Hs-578T = test system: Hs-578T
SK-MEL-5 = test system: SK-MEL-5
SN12C = test system: SN12C
NCI/ADR-RES = test system: NCI/ADR-RES
COLO 205 = test system: COLO 205
PC-3 = test system: PC-3
A498 = test system: A498
HL-60 = test system: HL-60
CCRF-CEM = test system: CCRF-CEM
MDA-N = test system: MDA-N
IGROV-1 = test system: IGROV-1
HOP-62 = test system: HOP-62
MDA-MB-231 = test system: MDA-MB-231
K562 = test system: K562
HOP-92 = test system: HOP-92
NCI-H460 = test system: NCI-H460
RPMI-8226 = test system: RPMI-8226
SNB-75 = test system: SNB-75
SR = test system: SR
TK-10 = test system: TK-10
M14 = test system: M14
UACC-257 = test system: UACC-257
SF-295 = test system: SF-295
MCF7 = test system: MCF7
RXF 393 = test system: RXF 393
Malme-3M = test system: Malme-3M
UO-31 = test system: UO-31
SK-OV-3 = test system: SK-OV-3
SK-MEL-28 = test system: SK-MEL-28
ACHN = test system: ACHN
NCI-H522 = test system: NCI-H522
A549 = test system: A549
OVCAR-5 = test system: OVCAR-5
SF-539 = test system: SF-539

Measured: GI50

CCCCOC(=O)c1cc(C(=CCC[C@H]2CC[C@@]3(C)[C@@H](CC[C@@H]4[C@@H]3CC[C@]3(C)[C@@H](C(C)CCCC(C)C)CC[C@@H]43)C2)c2cc(Cl)c(O)c(C(=O)OCCCC)c2)cc(Cl)c1O (stereo partly specified)
> 50 µM: HCT-15
inactive: MOLT-4 > 5 µM | CAKI-1 > 50 µM | LOX IMVI > 50 µM | SK-MEL-2 > 50 µM | T47D > 50 µM | DU-145 > 50 µM | NCI-H226 > 50 µM | UACC-62 > 50 µM | HT-29 > 50 µM | U-251 > 50 µM | HCC 2998 > 50 µM | OVCAR-8 > 50 µM | MDA-MB-435 > 50 µM | SF-268 > 50 µM | OVCAR-3 > 50 µM | 786-0 > 50 µM | OVCAR-4 > 50 µM | NCI-H23 > 50 µM | EKVX > 50 µM | BT-549 > 50 µM | HCT-116 > 50 µM | SW-620 > 50 µM | SNB-19 > 50 µM | KM12 > 50 µM | Hs-578T > 50 µM | SK-MEL-5 > 50 µM | SN12C > 50 µM | NCI/ADR-RES > 50 µM | COLO 205 > 50 µM | PC-3 > 50 µM | A498 > 50 µM | HL-60 > 50 µM | CCRF-CEM > 50 µM | MDA-N > 50 µM | IGROV-1 > 50 µM | HOP-62 > 50 µM | MDA-MB-231 > 50 µM | K562 > 5 µM | HOP-92 > 50 µM | NCI-H460 > 50 µM | RPMI-8226 > 50 µM | SNB-75 > 50 µM

CC1(C)CCC(C)(C)c2cc(C(=O)Nc3ccc(C(=O)O)cc3)ccc21
inactive: MOLT-4 24.9 µM | CAKI-1 18.4 µM | LOX IMVI 24.4 µM | SK-MEL-2 22.1 µM | T47D 15.5 µM | DU-145 28.4 µM | NCI-H226 > 44.8 µM | UACC-62 17.3 µM | HT-29 20.7 µM | U-251 27 µM | HCC 2998 19.2 µM | OVCAR-8 30.5 µM | SR 15 µM | TK-10 26.1 µM | M14 19.6 µM | UACC-257 28.2 µM | SF-295 22 µM | MDA-MB-435 16.4 µM | SF-268 27.3 µM | MCF7 33.1 µM | OVCAR-3 17.9 µM | 786-0 28.9 µM | OVCAR-4 20.9 µM | RXF 393 7.62 µM | NCI-H23 17.9 µM | EKVX 19.5 µM | BT-549 25.5 µM | HCT-116 19.3 µM | SW-620 36.7 µM | Malme-3M 18.7 µM | UO-31 14.9 µM | SNB-19 26.1 µM | SK-OV-3 19.8 µM | SK-MEL-28 40.3 µM | KM12 26.5 µM | ACHN 21.5 µM | NCI-H522 26.9 µM | SK-MEL-5 23.6 µM | SN12C 31.8 µM | NCI/ADR-RES 19.9 µM | COLO 205 18 µM | PC-3 19.9 µM | A549 20 µM | A498 31.7 µM | HL-60 3.52 µM | CCRF-CEM 18.2 µM | MDA-N 22 µM | IGROV-1 22.7 µM | HOP-62 18.7 µM | MDA-MB-231 22.4 µM | OVCAR-5 32.3 µM | K562 22.8 µM | HOP-92 27.1 µM | SF-539 13.4 µM | NCI-H460 19.9 µM | RPMI-8226 14.5 µM | SNB-75 26.4 µM
22.7 µM: HCT-15

COC(=O)/C=C1\C(CO[Si](C)(C)C(C)(C)C)OC(n2ccc(=O)[nH]c2=O)C1O (stereo unspecified)
6.71 µM: HCT-15
inactive: MOLT-4 8.49 µM | CAKI-1 22.6 µM | LOX IMVI 6.41 µM | SK-MEL-2 6.25 µM | T47D 3.63 µM | DU-145 7.06 µM | NCI-H226 5.58 µM | UACC-62 13.7 µM | HT-29 7.33 µM | U-251 7.8 µM | HCC 2998 7.71 µM | OVCAR-8 8.95 µM | SR 6.98 µM | TK-10 24.2 µM | M14 17.5 µM | UACC-257 4.73 µM | SF-295 9.82 µM | MDA-MB-435 8.13 µM | MCF7 4.91 µM | OVCAR-3 21.6 µM | 786-0 6.04 µM | OVCAR-4 15 µM | RXF 393 9.84 µM | NCI-H23 7.08 µM | EKVX 8.63 µM | BT-549 18.7 µM | HCT-116 4.4 µM | SW-620 9.73 µM | UO-31 9.89 µM | SNB-19 18.5 µM | SK-MEL-28 6.25 µM | KM12 7.06 µM | ACHN 12.6 µM | SK-MEL-5 6.28 µM | SN12C 8.57 µM | NCI/ADR-RES 10.4 µM | COLO 205 4.26 µM | PC-3 3.47 µM | A549 6.35 µM | A498 17.5 µM | CCRF-CEM 6.27 µM | MDA-N 7.67 µM | IGROV-1 20 µM | HOP-62 13.2 µM | MDA-MB-231 34.5 µM | OVCAR-5 16.5 µM | K562 5.4 µM | HOP-92 15.2 µM | SF-539 15.5 µM | NCI-H460 5.9 µM | RPMI-8226 6.07 µM | SNB-75 12.1 µM
active: SF-268 0.367 µM

O=C(O)c1ccccc1NC(=S)c1ccccc1
inactive: MOLT-4 67.5 µM | CAKI-1 43 µM | LOX IMVI 30.5 µM | T47D 34.2 µM | DU-145 > 100 µM | UACC-62 30.3 µM | HT-29 37.8 µM | U-251 47.8 µM | OVCAR-8 33.9 µM | TK-10 35.8 µM | M14 70.5 µM | UACC-257 29.7 µM | SF-295 35.2 µM | MDA-MB-435 52.8 µM | SF-268 64 µM | MCF7 31.3 µM | OVCAR-3 34.4 µM | 786-0 47.4 µM | RXF 393 51.9 µM | NCI-H23 80.9 µM | EKVX 37.8 µM | BT-549 33 µM | HCT-116 48.3 µM | SW-620 46.5 µM | Malme-3M 19.1 µM | UO-31 51.8 µM | SNB-19 48.5 µM | SK-OV-3 76.4 µM | KM12 50.2 µM | ACHN 24.7 µM | Hs-578T 53.7 µM | NCI-H522 13.5 µM | SK-MEL-5 38.5 µM | SN12C 66.4 µM | NCI/ADR-RES 51.1 µM | COLO 205 39.1 µM | PC-3 34.5 µM | A549 51.3 µM | A498 61.9 µM | HL-60 34 µM | CCRF-CEM 45.5 µM | MDA-N 38.7 µM | IGROV-1 25.1 µM | HOP-62 50.4 µM | MDA-MB-231 60.5 µM | OVCAR-5 > 100 µM | K562 39.2 µM | HOP-92 11.8 µM | SF-539 44.4 µM | NCI-H460 53.2 µM | RPMI-8226 28.2 µM
30.3 µM: HCT-15
active: HCC 2998 < 0.01 µM | OVCAR-4 0.0592 µM

O=C1Cc2c(-c3ccccc3)cc(-c3ccccc3)nc2-c2ccccc2N1
1.57 µM: HCT-15
inactive: CAKI-1 3.64 µM | LOX IMVI 4.37 µM | SK-MEL-2 2.66 µM | T47D 10.9 µM | DU-145 5.82 µM | NCI-H226 5.5 µM | UACC-62 6.89 µM | HT-29 3.61 µM | U-251 3.09 µM | HCC 2998 2.71 µM | OVCAR-8 3.56 µM | M14 3.44 µM | UACC-257 19.6 µM | SF-295 3.17 µM | MDA-MB-435 15.9 µM | SF-268 5.7 µM | OVCAR-3 5.56 µM | RXF 393 4.61 µM | NCI-H23 6.65 µM | EKVX 13.2 µM | BT-549 6.01 µM | HCT-116 2.24 µM | SW-620 5.47 µM | Malme-3M 9.79 µM | UO-31 3.71 µM | SNB-19 2.78 µM | SK-OV-3 5.22 µM | SK-MEL-28 5.12 µM | KM12 2.84 µM | Hs-578T 4.07 µM | NCI-H522 7.18 µM | SK-MEL-5 2.38 µM | SN12C 4.04 µM | NCI/ADR-RES 3.61 µM | COLO 205 2.21 µM | PC-3 8.69 µM | A549 5.61 µM | A498 20 µM | HL-60 75.9 µM | CCRF-CEM 17.2 µM | MDA-N > 10 µM | IGROV-1 18.6 µM | HOP-62 2.64 µM | MDA-MB-231 3.48 µM | OVCAR-5 3.54 µM | K562 8.02 µM | HOP-92 21.3 µM | SF-539 11 µM | NCI-H460 4.01 µM | RPMI-8226 39.7 µM | SNB-75 2.59 µM
